Test results published in patent publication US20050197350A1, “Novel quinoline, tetrahydroquinazoline, and pyrimidine derivatives and methods of treatment related to the use thereof” (TAISHO PHARMACEUTICAL CO., LTD., priority 2003, published 2005).

System: MCH receptors
Assay: MCH receptor activity class (method not given)
[1] = class by percent of control at 10^-7 M or IC50
[2] = class by percent of control at 10^−7 M or IC50
[3] = MCH receptor activity class 1-3 (percent of control at 10^-7 M or IC50)
[4] = MCH receptor, class by percent of control at 10^-7 M or IC50

Compound	class [1]	also measured
CCOc1ccccc1NC(=S)N[C@H]1CC[C@@H](Nc2nc3c(c(N(C)C)n2)CCCC3)CC1 [compound 1782]	2 (Class 2: The value of percent of control at 10^−7 M was from 40% to 60% or the value of IC′50 was from 50 nM to 200 nM.)	
Cc1cc(N(C)C)nc(N[C@H]2CC[C@@H](C(=O)NCc3cc(Cl)ccc3Cl)CC2)n1 [compound 2808, cis-N-(2,5-dichlorobenzyl)-4-{[4-(dimethylamino)-6-methylpyrimidin-2-yl]amino}cyclohexanecarboxamide]		class [2]: 1 (Class 1: The value of percent of control at 10^−7 M was less than 40% or the value of IC50 was less than 50 nM.)
Cc1cc([N+](=O)[O-])ccc1NC(=S)N[C@H]1CC[C@@H](Nc2nccc(N(C)C)n2)CC1 [compound 2336]		class [3]: 3 (Class 3 The value of percent of control at 10^−7 M was more than 60% or the value of IC50 was more than 200 nM.)
Cc1cc(N(C)C)nc(N[C@H]2CC[C@@H](CNC(=O)c3cccc(C(F)(F)F)c3)CC2)n1 [compound 2757]		class [2]: 3 (Class 3 The value of percent of control at 10^−7 M was more than 60% or the value of IC50 was more than 200 nM.)
COc1ccc(CNC[C@H]2CC[C@@H](Nc3nc4c(c(N(C)C)n3)CCCC4)CC2)c(OC)c1C [compound 1409]	3 (Class 3 The value of percent of control at 10^−7 M was more than 60% or the value of IC50 was more than 200 nM.)	
COc1ccc(CN[C@H]2CC[C@@H](Nc3nc4c(c(N(C)C)n3)CCCC4)CC2)c2ccccc12 [compound 1330]	3 (Class 3 The value of percent of control at 10^−7 M was more than 60% or the value of IC50 was more than 200 nM.)	
Cc1c(Cl)cccc1NC(=S)N[C@H]1CC[C@@H](Nc2cc(N(C)C)c3ccccc3n2)CC1 [compound 2306]		class [3]: 3 (Class 3 The value of percent of control at 10^−7 M was more than 60% or the value of IC50 was more than 200 nM.)
CN(C)c1cc(N[C@H]2CC[C@@H](CNC(=O)C(Cc3ccccc3)c3ccccc3)CC2)nc2ccccc12 (relative stereo) [compound 793]	3 (Class 3 The value of percent of control at 10^−7 M was more than 60% or the value of IC50 was more than 200 nM.)	
CN(C)c1ccnc(N[C@H]2CC[C@@H](NC(=O)c3cc(F)cc(F)c3)CC2)n1 [compound 252, N-(cis-4-{[4-(dimethylamino)pyrimidin-2-yl]amino}cyclohexyl)-3,5-difluorobenzamide]	2 (Class 2: The value of percent of control at 10^−7 M was from 40% to 60% or the value of IC′50 was from 50 nM to 200 nM.)	
COCCOC(=O)NC[C@H]1CC[C@@H](Nc2cc(N(C)C)c3ccccc3n2)CC1 [compound 1565]		class (activity class 1-3: percent of control at 10^-7 M or IC50): 3 (Class 3 The value of percent of control at 10^−7 M was more than 60% or the value of IC50 was more than 200 nM.)
Cc1cccc(C(=O)N[C@H]2CC[C@@H](Nc3nccc(N(C)C)n3)CC2)c1 [compound 268, N-(cis-4-{[4-(dimethylamino)pyrimidin-2-yl]amino}cyclohexyl)-3-methylbenzamide]	2 (Class 2: The value of percent of control at 10^−7 M was from 40% to 60% or the value of IC′50 was from 50 nM to 200 nM.)	
CN(C)c1nc(N[C@H]2CC[C@@H](NC(=S)Nc3ccccc3-c3ccccc3)CC2)nc2c1CCCC2 [compound 1770]	3 (Class 3 The value of percent of control at 10^−7 M was more than 60% or the value of IC50 was more than 200 nM.)	
Cc1cc(N(C)C)nc(N[C@H]2CC[C@@H](CNC(=O)c3ccc(F)c(F)c3)CC2)n1 [compound 2753, N-[(cis-4-{[4-(dimethylamino)-6-methylpyrimidin-2-yl]amino}cyclohexyl)methyl]-3,4-difluorobenzamide]		class [2]: 3 (Class 3 The value of percent of control at 10^−7 M was more than 60% or the value of IC50 was more than 200 nM.)
CN(C)c1ccnc(N[C@H]2CC[C@@H](NC(=O)c3cccc(Cl)c3F)CC2)n1 [compound 277]	3 (Class 3 The value of percent of control at 10^−7 M was more than 60% or the value of IC50 was more than 200 nM.)	
Cc1ccc(C(=O)NC[C@H]2CC[C@@H](Nc3cc(N(C)C)c4ccccc4n3)CC2)cc1[N+](=O)[O-] [compound 170, N-[(cis-4-{[4-(dimethylamino)quinolin-2-yl]amino}cyclohexyl)methyl]-4-methyl-3-nitrobenzamide]		class [4]: 3 (Class 3 The value of percent of control at 10^−7 M was more than 60% or the value of IC50 was more than 200 nM.)
Cc1ccc(NC(=S)N[C@H]2CC[C@@H](Nc3nc4c(c(N(C)C)n3)CCCC4)CC2)c([N+](=O)[O-])c1 [compound 2020]		class [4]: 3 (Class 3 The value of percent of control at 10^−7 M was more than 60% or the value of IC50 was more than 200 nM.)
Cc1cnc(N[C@H]2CC[C@@H](NC(=O)CN(C)c3cccc(F)c3)CC2)nc1N(C)C [compound 2943]		class [2]: 1 (Class 1: The value of percent of control at 10^−7 M was less than 40% or the value of IC50 was less than 50 nM.)
CN(C)c1cc(N[C@H]2CC[C@@H](CNCCc3ccc(Br)cc3)CC2)nc2ccccc12 [compound 1463]	3 (Class 3 The value of percent of control at 10^−7 M was more than 60% or the value of IC50 was more than 200 nM.)	
CN(C)c1cc(N[C@H]2CC[C@@H](CNC(=O)Nc3ccc(F)c(Cl)c3)CC2)nc2ccccc12 [compound 2404]		class [3]: 3 (Class 3 The value of percent of control at 10^−7 M was more than 60% or the value of IC50 was more than 200 nM.)

Compound	class [1]	also measured
CN(C)c1nc(N[C@H]2CC[C@@H](NC(=S)Nc3cccc4ccccc34)CC2)nc2c1CCCC2 [compound 1744]	3 (Class 3 The value of percent of control at 10^−7 M was more than 60% or the value of IC50 was more than 200 nM.)	
CCCc1ccccc1NC(=O)N[C@H]1CC[C@@H](Nc2nccc(N(C)C)n2)CC1 [compound 2202]	3 (Class 3 The value of percent of control at 10^−7 M was more than 60% or the value of IC50 was more than 200 nM.)	
CCOc1cc(CNC[C@H]2CC[C@@H](Nc3cc(N(C)C)c4ccccc4n3)CC2)ccc1O [compound 1159]	3 (Class 3 The value of percent of control at 10^−7 M was more than 60% or the value of IC50 was more than 200 nM.)	
CN(C)c1nc(N[C@H]2CC[C@@H](NC(=O)Nc3cccc(Oc4ccccc4)c3)CC2)nc2c1CCCC2 [compound 1875]	3 (Class 3 The value of percent of control at 10^−7 M was more than 60% or the value of IC50 was more than 200 nM.)	
CN(C)c1ccnc(N[C@H]2CC[C@@H](NC(=O)C(c3ccc(Cl)cc3)c3ccc(Cl)cc3)CC2)n1 [compound 825]	3 (Class 3 The value of percent of control at 10^−7 M was more than 60% or the value of IC50 was more than 200 nM.)	
Cc1onc(-c2ccccc2)c1NC(=S)N[C@H]1CC[C@@H](Nc2nc3c(c(N(C)C)n2)CCCC3)CC1 [compound 1789]	3 (Class 3 The value of percent of control at 10^−7 M was more than 60% or the value of IC50 was more than 200 nM.)	
CCc1cccc(CC)c1NC(=O)NC[C@H]1CC[C@@H](Nc2nccc(N(C)C)n2)CC1 [compound 2418, N-(2,6-diethylphenyl)-N′-[(cis-4-{[4-(dimethylamino)pyrimidin-2-yl]amino}cyclohexyl)methyl]urea]		class [3]: 1 (Class 1: The value of percent of control at 10^−7 M was less than 40% or the value of IC50 was less than 50 nM.)
Cc1cc(N(C)C)nc(NC[C@H]2CC[C@@H](NC(=O)c3ccc(F)c(F)c3)CC2)n1 [compound 2734, N-[cis-4-({[4-(dimethylamino)-6-methylpyrimidin-2-yl]amino}methyl)cyclohexyl]-3,4-difluorobenzamide]		class [2]: 3 (Class 3 The value of percent of control at 10^−7 M was more than 60% or the value of IC50 was more than 200 nM.)
COc1ccc2c(c1)C(CC(=O)N[C@H]1CC[C@@H](Nc3nccc(N(C)C)n3)CC1)CC2=O (relative stereo) [compound 852]	3 (Class 3 The value of percent of control at 10^−7 M was more than 60% or the value of IC50 was more than 200 nM.)	
COc1ccc(CN[C@H]2CC[C@@H](Nc3ncc(C)c(N(C)C)n3)CC2)cc1C [compound 3003]		class [2]: 3 (Class 3 The value of percent of control at 10^−7 M was more than 60% or the value of IC50 was more than 200 nM.)
CN(C)c1nc(N[C@H]2CC[C@@H](NC(=S)NC(c3ccccc3)c3ccccc3)CC2)nc2c1CCCC2 [compound 2025]		class [4]: 3 (Class 3 The value of percent of control at 10^−7 M was more than 60% or the value of IC50 was more than 200 nM.)
CN(C)c1cc(N[C@H]2CC[C@@H](NC(=O)c3ccc(Cl)c(Cl)c3)CC2)nc2ccccc12 [compound 31]		class [4]: 1 (Class 1: The value of percent of control at 10^−7 M was less than 40% or the value of IC50 was less than 50 nM.)
CN(C)c1cc(N[C@H]2CC[C@@H](CNC(=O)c3cc(F)ccc3Cl)CC2)nc2ccccc12 [compound 225]	3 (Class 3 The value of percent of control at 10^−7 M was more than 60% or the value of IC50 was more than 200 nM.)	
CN(C)c1nc(N[C@H]2CC[C@@H](NC(=O)Nc3cc(C(F)(F)F)cc(C(F)(F)F)c3)CC2)nc2c1CCCC2 [compound 1811]	3 (Class 3 The value of percent of control at 10^−7 M was more than 60% or the value of IC50 was more than 200 nM.)	
CN(C)c1cc(N[C@H]2CC[C@@H](CNC(=O)c3ccc(F)c(Cl)c3)CC2)nc2ccccc12 [compound 200]		class [4]: 3 (Class 3 The value of percent of control at 10^−7 M was more than 60% or the value of IC50 was more than 200 nM.)
CN(C)c1cc(N[C@H]2CC[C@@H](CNC(=O)c3cccc(Cl)c3F)CC2)nc2ccccc12 [compound 186]		class [4]: 3 (Class 3 The value of percent of control at 10^−7 M was more than 60% or the value of IC50 was more than 200 nM.)
CN(C)c1nc(N[C@H]2CC[C@@H](CNCc3cc(Cl)cc(Cl)c3)CC2)nc2c1CCCC2 [compound 1429]	3 (Class 3 The value of percent of control at 10^−7 M was more than 60% or the value of IC50 was more than 200 nM.)	
Cc1ccc(Oc2ncccc2C(=O)N[C@H]2CC[C@@H](Nc3nc4c(c(N(C)C)n3)CCCC4)CC2)cc1 [compound 573]		class (class 1-3 by percent of control at 10^-7 M or IC50): 1 (Class 1: The value of percent of control at 10^−7 M was less than 40% or the value of IC50 was less than 50 nM.)
